Data taken from US20240009168A1 (Cognition Therapeutics, Inc., priority 2020, published 2024).

How the values were obtained:
[1] = tested on: RPE cell cultures; assay: Autophagy assays: POS trafficking, colocalization of POS with LC3B; format: cell-based
Procedure: FIGS. 2A and 2B depict photoreceptor outer segment trafficking after treatment with Abeta oligomers in the presence or absence of sigma 2 receptor modulators (FIG. 2A=Compound A and Compound C; FIG. 2B=Compound B).
FIGS. 3A and 3B depict photoreceptor outer segment trafficking after treatment with an oxidative stressor in the presence or absence of sigma 2 receptor modulators (FIG. 3A=Compound A and Compound C; FIG. 3B=Compound B).
Autophagy Assays: Autophagy assays were performed in accordance with Klionsky et al., “Guidelines for the Use and Interpretation of Assays for Monitoring Autophagy,” (4th edition) Autophagy 2021; 17:1-382, which is hereby incorporated by reference in its entirety. RPE cultures were treated with human oligomeric Aβ in either the presence or absence of compounds of the invention. POS trafficking was measured over time after the addition of POS to RPE cell cultures. Stressors included addition of Aβ oligomers or H2O2 for 12 to 48 hours. […] This process was disrupted by addition of stressors such as Aβ oligomers (FIGS. 2A and 2B) or oxidative stress (FIGS. 3A and 3B).

[2] = tested on: RPE cell cultures; assay: Quantification of an autophagy related protein after oxidative stressor; format: cell-based; details: after oxidative stressor (FIG. 4)
Excerpt: FIG. 4 depicts quantification of an autophagy-related protein after oxidative stress by an oxidative stressor in the presence or absence of sigma-2 receptor modulators.
Oxidative stressors are associated with pathology in AMD with changes seen in autophagy associated proteins. Application of an oxidative stressor caused increased expression of an autophagy related protein acutely (FIG. 4).

[3] = target: T1, sigma-2 receptors (Mus musculus, UniProt Q8VD00); assay: Drug concentration in plasma, brain and retina; format: in vivo
T1 sequence (Q8VD00 1-176): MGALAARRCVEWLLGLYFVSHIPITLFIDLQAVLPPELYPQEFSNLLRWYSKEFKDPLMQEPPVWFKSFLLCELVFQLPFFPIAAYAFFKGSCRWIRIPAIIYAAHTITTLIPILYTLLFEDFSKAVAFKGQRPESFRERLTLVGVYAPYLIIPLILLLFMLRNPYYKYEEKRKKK
Procedure: FIG. 6 depicts quantification of the concentration of the sigma-2 receptor modulator Compound A in mouse plasma, brain, and retina.
FIG. 7 depicts quantification of the concentration of the sigma-2 receptor modulator, Compound B, in mouse plasma, brain and retina.
Following a single oral administration of [14C]-Compound A to a rat, autoradiography was performed to determine tissue distribution. […] Receptor occupancy exceeding 80% confers efficacy in vivo. Drug concentration in the brain (cerebellum), retina, and plasma were also measured. […] Similarly, following a single orally administered dose, Compound B was found in concentrations that exceeded 80% receptor occupancy at sigma-2 receptors in the retina and plasma and approximately 50% occupancy in the brain (FIG. 7).

[4] = tested on: retinal ganglion cells; assay: In vivo model of glaucoma: retinal ganglion cell counts; details: p<0.05 (FIG. 8)
Excerpt: FIG. 8 depicts quantification of retinal ganglion cell density in an in vivo model of glaucoma in the presence or absence of sigma-2 receptor modulator.
(§1) In vivo models of glaucoma (Shah, M., et al., “Translational Preclinical Pharmacologic Disease Models for Opthalmic Drug Development,” Development. Pharm. Res. 36(4): 58 (2019); which is hereby incorporated by reference in its entirety) were used to test the utility of sigma-2 receptor modulators.
To test whether sigma-2 receptor modulators can rescue cell death, in vivo models were used to cause cell death of retinal ganglion cells, resembling what is seen in patients with glaucoma and other retinal diseases.

[5] = tested on: retinal ganglion cells; assay: In vivo model of glaucoma: pattern electroretinogram (PERG); details: p<0.05 (FIGS. 9A and 9B)
Excerpt: FIGS. 9A and 9B depict quantification of electrical activity in retinal ganglion cells in an in vivo model of glaucoma in the presence or absence of sigma-2 receptor modulator.
as §1
Glaucoma can cause perturbations in the electrical activity of the retina. To measure the electrical activity, a pattern electroretinogram (PERG) measure electrical activity of the retina in response to a test stimulus, such as a reversing checkerboard. PERG is a noninvasive, direct, and objective method to assess retinal ganglion cell function. An in vivo model of glaucoma causes a functional deficit in retinal ganglion cells (injured vs. naïve), resembling what is seen in patients with glaucoma and other retinal diseases.

[6] = oxidative stress, H2O2 (FIGS. 3A and 3B)
[7] = stressor Aβ oligomers (FIGS. 2A and 2B)

SMILES | POS trafficking into autophagosomes (colocalization of POS with LC3B) [1, 6] | POS trafficking into autophagosomes (colocalization of POS with LC3B) [1, 7] | expression of an autophagy related protein [2] | occupancy at sigma-2 receptors in the brain ([3]; mouse (FIG. 7), single orally administered dose) | retinal ganglion cell counts [4] | concentration in the retina relative to brain (cerebellum) and plasma ([3]; mouse (FIG. 6)) | retinal ganglion cell function (PERG electrical activity) [5]
CC(C)=C[C@@H](CC(C)(C)c1ccc(C(F)(F)F)cc1)N1CCC(C2CCOCC2)CC1 [Compound C] | restored normal trafficking into autophagosomes after stress | restored normal trafficking into autophagosomes after stress | prevented the increase in this autophagy related protein | – | – | – | –
CC1(O)CCN(CCC(C)(C)c2ccc(C(F)(F)F)cc2)CC1 [Compound B] | – | – | – | approximately 50% | significantly preserved retinal ganglion cells counts | – | –
CC(C)(C)Oc1cc(CCC(C)(C)N2Cc3ccc(S(C)(=O)=O)cc3C2)ccc1O [Compound A] | restored normal trafficking into autophagosomes after stress | restored normal trafficking into autophagosomes after stress | prevented the increase in this autophagy related protein | – | – | higher than the concentration in the brain or plasma | preserves retinal ganglion cell function
